Measurements: paper PMC7665585, “Antidepressive effect of an inward rectifier K^+ channel blocker peptide, tertiapin-RQ” (PLoS ONE, 2020)
Bridge positions count the residues as written; N and C are the ends. Peptide text beside a SMILES is read from it.

Biological target: T1, rat ROMK (Rattus norvegicus, UniProt P35560)
T1 construct: expressed in transfected cells; host or cells: 293T cell line 208-4 (lentiviral transduction, GFP coexpressed)
T1 sequence (P35560 1-391): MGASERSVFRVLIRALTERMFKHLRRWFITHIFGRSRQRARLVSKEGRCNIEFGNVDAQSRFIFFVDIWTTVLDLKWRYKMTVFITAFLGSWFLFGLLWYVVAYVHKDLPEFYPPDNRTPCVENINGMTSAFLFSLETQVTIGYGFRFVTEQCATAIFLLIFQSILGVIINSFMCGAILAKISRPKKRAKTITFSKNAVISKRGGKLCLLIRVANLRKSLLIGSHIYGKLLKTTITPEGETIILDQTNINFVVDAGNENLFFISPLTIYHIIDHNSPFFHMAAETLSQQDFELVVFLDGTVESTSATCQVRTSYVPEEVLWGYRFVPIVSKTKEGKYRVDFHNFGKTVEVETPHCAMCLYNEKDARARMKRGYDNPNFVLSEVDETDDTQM
Assay: Whole-cell patch-clamp of ROMK currents in 208–4 cells
Format: cell-based
Conditions: blockade at 1 μM estimated from fitted Hill curve (four parameters), whole-cell conductance, n = 3–6, read-out: Activity (ROMK channel blocking activity, percentage of blockade at 1 μM)
Source text: The cDNAs for rat ROMK and mouse GIRK1, 2, and 4 were generously donated by Drs Mikio Hayashi (Kansai Medical University) and David Weaver (Vanderbilt University). The ROMK channels were stably expressed by a cell line, 208–4, which was transduced with lentiviral vectors coexpressing the channel and green fluorescent protein (GFP) as described previously. The GIRK genes, cloned in a pCMV6 plasmid (Origene Technologies Inc, Rockville, MD), were transiently expressed in 293T cells with calcium phosphate transfection. GIRK channel currents were recorded 24 h after transfection.
Cells grown on small cover glasses (3 × 18 mm) were placed in a recording chamber. Whole-cell currents were recorded in Tyrode solution using an Axopatch 200B amplifier (Axon Instruments, Foster City, CA) at 25°C. Tyrode solution contained (in mM): NaCl 140, KCl 5.4, NaH2PO4 0.33, CaCl2 2, MgCl2 1, HEPES 5, and glucose 5.5 (pH 7.4 adjusted with NaOH). High K^+ Tyrode solution (KCL 50 mM, NaCl 95 mM, and others were the same as standard Tyrode solution) was used for the recording of GIRK channels. Patch pipettes pulled from borosilicate glass (Narishige, Tokyo, Japan) were filled with an internal solution containing (in mM): K-aspartate 66, KCl 71.5, KH2PO4 1, EGTA 5, HEPES 5, and MgATP 3 (pH 7.4 adjusted with KOH). Recordings were digitized at 10 kHz, and low-pass filtered at 2 kHz. ROMK, Kir2.1, and GIRK currents were evoked with step pulses of 400 msec from -150 mV to 10 mV in 10 mV increments from a holding potential of -70 mV. Whole-cell currents were recorded 60 sec after the peptide application and those from 100 to 300 msec of the step pulses were averaged. Liquid junction potential or capacitive transient was not corrected or compensated. Whole-cell conductance was calculated as the slope of the current-voltage (I-V) relationship from -140 mV to -100 mV and normalized to the initial value (0 μM TPN), in which BaCl2-resistant current was subtracted and indicted as a percentage.

| Compound | inhibition at 1 µM [%] |
| --- | --- |
| CC[C@H](C)[C@@H]1NC(=O)[C@H](CCCNC(=N)N)NC(=O)[C@H](CCCNC(=N)N)NC(=O)[C@H](CC(N)=O)NC(=O)[C@H](CO)NC(=O)[C@H](CC(N)=O)NC(=O)[C@@H](N)CSSC[C@@H](C(=O)N[C@@H](Cc2c[nH]c3ccccc23)C(=O)N[C@@H](CCCCN)C(N)=O)NC(=O)[C@H](CCC(N)=O)NC(=O)[C@H](CCCCN)NC(=O)[C@@H]2CCCN2C(=O)[C@H]([C@@H](C)CC)NC1=O [Peptide 42, TPN-RQ 3-16(C5S/H12K)] (H-CNSNRRIIPKQCWK-NH2; disulfide 1-12) | < 20 |
| CC[C@H](C)[C@@H]1NC(=O)[C@H](CCCNC(=N)N)NC(=O)[C@H](CCCNC(=N)N)NC(=O)[C@H](CC(N)=O)NC(=O)[C@H](CO)NC(=O)[C@H](CC(N)=O)NC(=O)[C@@H](NC(=O)[C@@H](N)CCC(N)=O)CSSC[C@@H](C(=O)N[C@@H](Cc2c[nH]c3ccccc23)C(=O)N[C@@H](CCCCN)C(N)=O)NC(=O)[C@H](CCC(N)=O)NC(=O)[C@H](Cc2c[nH]cn2)NC(=O)[C@@H]2CCCN2C(=O)[C@H]([C@@H](C)CC)NC1=O [Peptide 43, Q + TPN-RQ 3-16(C5S)] (H-QCNSNRRIIPHQCWK-NH2; disulfide 2-13) | < 20 |
| CC[C@H](C)[C@@H]1NC(=O)[C@H](CCCNC(=N)N)NC(=O)[C@H](CCCNC(=N)N)NC(=O)[C@H](CC(N)=O)NC(=O)[C@H](CO)NC(=O)[C@H](CC(N)=O)NC(=O)[C@@H](NC(=O)[C@@H](N)CCC(N)=O)CSSC[C@@H](C(=O)N[C@@H](Cc2c[nH]c3ccccc23)C(=O)N[C@@H](CCCCN)C(N)=O)NC(=O)[C@H](CCC(N)=O)NC(=O)[C@H](CCCCN)NC(=O)[C@@H]2CCCN2C(=O)[C@H]([C@@H](C)CC)NC1=O [Peptide 44, Q + TPN-RQ 3-16(C5S/H12K)] (H-QCNSNRRIIPKQCWK-NH2; disulfide 2-13) | < 20 |
| CC[C@H](C)[C@@H]1NC(=O)[C@H](CCCNC(=N)N)NC(=O)[C@H](CC(N)=O)NC(=O)[C@@H](NC(=O)[C@H](CC(N)=O)NC(=O)[C@H](CO)NC(=O)[C@H](CC(C)C)NC(=O)[C@H](C)N)CSSC[C@@H](C(=O)NCC(=O)N[C@@H](CCCCN)C(=O)N[C@@H](CCCCN)C(N)=O)NC(=O)[C@H](CCCCN)NC(=O)[C@H](CCCCN)NC(=O)[C@H](Cc2c[nH]c3ccccc23)NC(=O)[C@H](CO)NC(=O)[C@H](CCC(N)=O)NC(=O)[C@H](Cc2c[nH]cn2)NC(=O)[C@@H]2CCCN2C(=O)[C@H]([C@@H](C)CC)NC(=O)[C@H]([C@@H](C)CC)NC1=O [Peptide 49, TPN-Q(C3S/C14S)] (H-ALSNCNRIIIPHQSWKKCGKK-NH2; disulfide 5-18) | < 20 |
| CC[C@H](C)[C@@H]1NC(=O)[C@H](CCCNC(=N)N)NC(=O)[C@H](CCCNC(=N)N)NC(=O)[C@H](CC(N)=O)NC(=O)[C@@H](NC(=O)[C@H](CC(N)=O)NC(=O)[C@H](CO)NC(=O)[C@H](CC(C)C)NC(=O)[C@H](C)N)CSSC[C@@H](C(=O)NCC(=O)N[C@@H](CCCCN)C(=O)N[C@@H](CCCCN)C(N)=O)NC(=O)[C@H](CCCCN)NC(=O)[C@H](CCCCN)NC(=O)[C@H](Cc2c[nH]c3ccccc23)NC(=O)[C@H](CO)NC(=O)[C@H](CCC(N)=O)NC(=O)[C@H](Cc2c[nH]cn2)NC(=O)[C@@H]2CCCN2C(=O)[C@H]([C@@H](C)CC)NC1=O [Peptide 50, TPN-RQ(C3S/C14S)] (H-ALSNCNRRIIPHQSWKKCGKK-NH2; disulfide 5-18) | < 20 |
| CC[C@H](C)[C@@H]1NC(=O)[C@H](CCCNC(=N)N)NC(=O)[C@H](CC(N)=O)NC(=O)[C@@H]2CSSC[C@@H](C(=O)NCC(=O)N[C@@H](CCCCN)C(=O)N[C@@H](CCCCN)C(N)=O)NC(=O)[C@H](CCCCN)NC(=O)[C@H](CCCCN)NC(=O)[C@H](Cc3c[nH]c4ccccc34)NC(=O)[C@H](CSSC[C@H](NC(=O)[C@H](CC(C)C)NC(=O)[C@H](C)N)C(=O)N[C@@H](CC(N)=O)C(=O)N2)NC(=O)[C@H](CCC(N)=O)NC(=O)[C@H](Cc2c[nH]cn2)NC(=O)[C@@H]2CCCN2C(=O)[C@H]([C@@H](C)CC)NC1=O [Peptide 51, TPN-RQ(Δ8R)] (H-ALCNCNRIIPHQCWKKCGKK-NH2; disulfide 3-13, 5-17) | 40 to 60 |
